Experimental data published in the NIST ThermoML archive (doi:10.1021/acs.jced.7b00321).
Numbers after ± are expanded uncertainties.

Details: 101 kPa, Liquid; for viscosity: Capillary tube (Ostwald / Ubbelohde) method; for mass density: Vibrating tube method

| viscosity (293.15 K) | mass density (293.15 K) | viscosity (303.15 K) | mass density (303.15 K) | viscosity (313.15 K) | mass density (313.15 K) | viscosity (323.15 K) | mass density (323.15 K) | Structure (SMILES) |
| --- | --- | --- | --- | --- | --- | --- | --- | --- |
| 1.17 ± 0.02 mPa·s | 788.88 ± 1 kg/m3 | 0.97 ± 0.02 mPa·s | 781.69 ± 1 kg/m3 | 0.81 ± 0.02 mPa·s | 772.3 ± 1 kg/m3 | 0.69 ± 0.02 mPa·s | 765.29 ± 1 kg/m3 | CCO [ethanol] |
| 40.26 ± 0.86 mPa·s | 987.5 ± 1 kg/m3 | 24.03 ± 0.52 mPa·s | 979.45 ± 1 kg/m3 | 15.08 ± 0.32 mPa·s | 971.67 ± 1 kg/m3 | 10.01 ± 0.22 mPa·s | 963.36 ± 1 kg/m3 | NCCCO [3-amino-1-propanol] |
| 30.44 ± 0.65 mPa·s | 960.81 ± 1 kg/m3 | 17.87 ± 0.39 mPa·s | 952.25 ± 1 kg/m3 | 10.79 ± 0.23 mPa·s | 944.43 ± 1 kg/m3 | 6.99 ± 0.15 mPa·s | 936.21 ± 1 kg/m3 | CC(O)CN (stereo not given) [1-amino-2-propanol] |
| 136.19 ± 3.6 mPa·s | 1029.14 ± 1 kg/m3 | 71.64 ± 1.6 mPa·s | 1021.45 ± 1 kg/m3 | 39.59 ± 0.86 mPa·s | 1014.18 ± 1 kg/m3 | 23.41 ± 0.52 mPa·s | 1006.54 ± 1 kg/m3 | NCCNCCO [N-(2-aminoethyl)ethanolamine] |
| 6.99 ± 0.15 mPa·s | 951.16 ± 1 kg/m3 | 4.79 ± 0.1 mPa·s | 942.19 ± 1 kg/m3 | 3.45 ± 0.07 mPa·s | 933.93 ± 1 kg/m3 | 2.6 ± 0.06 mPa·s | 925.42 ± 1 kg/m3 | NCCNCCN [di(2-aminoethyl)amine] |
